We go through 4 compounds from patent EP2527319A1, “Crystalline forms of pregabalin and co-formers in the treatment of pain” (Laboratorios del. Dr. Esteve, S.A., priority 2011, dated 2012).

SMILES strings stand for the structures. Values after ≈ are worked out from the molar mass of the structure shown. Where two headings read alike, the source gives them in different places.

For series [1] the following is noted: for hygroscopicity (classification from DVS): 15 to 95% RH, result in words; for hygroscopicity (classification from DVS) / Δ %weight 24 h: DVS; for Δ %weight 24 h: humidity increased stepwise from 15 to 95% RH at constant temperature; for Hygroscopicity (85-95%): summary table, same figures as Δ %weight 24 h of Table 1. How it is done: The objective was to measure the hygroscopicity of some crystalline forms of the present invention. The percentage increase of mass was calculated in order to evaluate the adsorption of water in the samples.
Dynamic Vapour Sorption (DVS) analysis is a technique specifically designed to provide information related to material response to changes in relative humidity and T°C. A Q5000 SA DVS equipment from TA Instruments was used for running the experiment.
The variation of the weight is controlled and the following percentage is calculated: Δ %weight = (Pn-P1)/P1 x 100 [formula] wherein: P1 is the initial weight , Pn is the weight measured for the sample.

The conditions of series [2]: for Hygroscopicity: storage at ambient and humidity (40 C, 85-95% RH) conditions; for Hygroscopicity (85-95%): summary table, 85-95% RH, result in words.
For series [3] the following is noted: pH 7.4; free form; cited from earlier work.

As for `CC(C)C[C@H](CN)CC(=O)O.Cl.O=C(O)[C@@H]1CCCN1` [Example 6, (S)-Pregabalin - L-proline - HCl (1:1:1)], in series [1], the “hygroscopicity (classification from DVS)” value is “deliquescent”, the “Δ %weight 24 h” value was 95% and the “Hygroscopicity (85-95%)” value is reported as 95%. Besides, the “hygroscopicity (classification from DVS)” value in series [1] (listed as sample 1) is given as “sufficient water was absorbed to form a liquid”. The Hygroscopicity entry in series [2] is on record as “hygroscopic tendencies, particularly at humid conditions, to such an extent that it liquefied”.
Take `CC(C)C[C@H](CN)CC(=O)O.CC(C)C[C@H](CN)CC(=O)O.O.O=C(O)/C=C\C(=O)O.O=C(O)/C=C\C(=O)O` [Example 7, (S)-Pregabalin - maleic acid - H2O (1:1:0.5)]: in series [1], the “hygroscopicity (classification from DVS)” value is reported as “very hygroscopic”, the “Δ %weight 24 h” value is on record as 37,9% and the “Hygroscopicity (85-95%)” value turned out to be 37.9%.
For the compound `CC(C)C[C@H](CN)CC(=O)O.CCCCCCCCCCCC(=O)O` [Example 11, (S)-Pregabalin - lauric acid (1:1)], in series [1], the “hygroscopicity (classification from DVS)” value is “not hygroscopic” and the “Δ %weight 24 h” value stood at 0%. In series [2], the Hygroscopicity entry is recorded as “non-hygroscopic” and the “Hygroscopicity (85-95%)” value is reported as “Non-hygroscopic”.
Consider `CC(C)C[C@H](CN)CC(=O)O` [PGB free base, (S)-3-(aminomethyl)-5-methylhexanoic acid, reference compound], for which the solubility in water in series [3] was 32 mg/mL (≈ 201 mM). The “Hygroscopicity (85-95%)” value in series [2] was “Non-hygroscopic”.
